Results: patent publication US12570656B2, “Purine compounds for treating disorders” (MARVEL BIOTECHNOLOGY, priority 2020, dated 2026)
“And” between values parts separate entries of the source, which are not always exact repeats. Identical values can stand only once. Like-named read-outs stand apart in the source and are kept apart here.

Assays:
[1] = Plasma pharmacokinetics in male CD-1 mice (1 mg/kg i.v. or 3 mg/kg p.o.); details: CD-1, mouse, in vivo
Method: (§1) Male CD-1 mice were given either bolus 1 mg/kg i.v. or 3 mg/kg p.o. of the indicated compounds and plasma or brain concentrations were measured.
(§2) Where: • C0 concentration extrapolated to time zero following an i.v. dose • tmax time at which maximum concentration is observed • Cmax maximum observed concentration • Apparent t1/2 apparent terminal half-life • AUC0-tlast area under the concentration vs time curve from time 0 to the time of the last measurable concentration • AUC0-inf area under the concentration vs time curve from time 0 to infinity • CL systemic clearance • MRT0-inf mean residence time from time zero to infinity • Vss steady-state volume of distribution • F oral bioavailability=(Dose^iv*AUC^po)/(Dose^po*AUC^iv)*100

[2] = Brain pharmacokinetics and brain/plasma ratio in male CD-1 mice (1 mg/kg i.v.); format: in vivo; details: for concentration at 5 min / concentration at 0.25 h / concentration at 0.5 h / concentration at 1 h / concentration at 2 h / concentration at 4 h / concentration at 6 h / concentration at 8 h: intravenous
Method: as §1, §2

[3] = male, CD-1, mouse, iv, brain, i.v. 1 mg/kg

CCn1c(=O)c2c(nc(/C=C/c3ccc(OC)c(OC)c3)n2C)n(CC)c1=O [Istradefylline, reference compound] showed a bioavailability [1] of 30.9%, an AUC(0-inf) ([1]; iv, 1 mg/kg) of 1440 ng·h/mL and an AUC(0-t) ([1]; iv, 1 mg/kg) of 1420 ng·h/mL. It also gave a Cmax ([1]; iv, 1 mg/kg) of 745 ng/mL, an MRT inf ([1]; iv, 1 mg/kg) of 1.96 h and a Tmax ([1]; iv, 1 mg/kg) of 0.25 h. For the same compound, the Vd ([1]; iv, 1 mg/kg) was 1.36 L/kg, the clearance ([1]; iv, 1 mg/kg) was 11.6 mL/min/kg and the half-life ([1]; iv, 1 mg/kg) was 1.35 h. The AUC(0-inf) ([1]; po, 3 mg/kg) was 1340 ng·h/mL, the AUC(0-t) ([1]; po, 3 mg/kg) was 1340 ng·h/mL and the Cmax ([1]; po, 3 mg/kg) was 250 ng/mL. It also gave an MRT inf ([1]; po, 3 mg/kg) of 3.82 h, a Tmax ([1]; po, 3 mg/kg) of 1 h and a half-life ([1]; po, 3 mg/kg) of 2.2 h. For the same compound, the Brain concentration ([2]; 1 mg/kg bolus i.v., 5 min, individual animals 1-3) was 423 ng/g and 691 ng/g, the Brain concentration ([2]; 1 mg/kg bolus i.v., 0.25 h, individual animals 1-3) was 474 ng/g and 418 ng/g and the Brain concentration ([2]; 1 mg/kg bolus i.v., 0.5 h, individual animals 1-3) was 230 ng/g and 235 ng/g. For the same compound, the Brain concentration ([2]; 1 mg/kg bolus i.v., 1 h, individual animals 1-3) was 209 ng/g and 237 ng/g, the Brain concentration ([2]; 1 mg/kg bolus i.v., 2 h, individual animals 1-3) was 180 ng/g and 156 ng/g and the Brain concentration ([2]; 1 mg/kg bolus i.v., 4 h, individual animals 1-3) was 76.8 ng/g and 79.5 ng/g. The Brain concentration ([2]; 1 mg/kg bolus i.v., 6 h, individual animals 1-3) was 50.1 ng/g and 32.6 ng/g, the Brain concentration ([2]; 1 mg/kg bolus i.v., 8 h, individual animals 1-3) was 22.2 ng/g and 17.1 ng/g and the AUC0-tlast ([2]; brain, i.v. 1 mg/kg) was 938 ng·h/g. The AUC(0-inf) ([2]; brain, i.v. 1 mg/kg) was 1011 ng·h/g, the Kp at 5 min ([2]; male, CD-1, mouse, brain and plasma, iv, 1 mg/kg, 1 mg/kg bolus i.v., 5 min, individual animals 1-3, read-out: Brain/plasma concentration ratio) was 0.726 and the Kp at 5 min ([2]; male, CD-1, mouse, brain and plasma, iv, 1 mg/kg, 1 mg/kg bolus i.v., 5 min, read-out: Brain/plasma concentration ratio, Mean) was 0.828. It also gave a Kp at 0.25 h ([2]; male, CD-1, mouse, brain and plasma, iv, 1 mg/kg, 1 mg/kg bolus i.v., 0.25 h, individual animals 1-3, read-out: Brain/plasma concentration ratio) of 0.42, a Kp at 0.25 h ([2]; male, CD-1, mouse, brain and plasma, iv, 1 mg/kg, 1 mg/kg bolus i.v., 0.25 h, read-out: Brain/plasma concentration ratio, Mean) of 0.516 and a Kp at 0.5 h ([2]; male, CD-1, mouse, brain and plasma, iv, 1 mg/kg, 1 mg/kg bolus i.v., 0.5 h, read-out: Brain/plasma concentration ratio, Mean) of 0.483. It also gave a Kp at 8 h ([2]; male, CD-1, mouse, brain and plasma, iv, 1 mg/kg, 1 mg/kg bolus i.v., 8 h, individual animals 1-3, read-out: Brain/plasma concentration ratio) of 2.76, a Kp at 8 h ([2]; male, CD-1, mouse, brain and plasma, iv, 1 mg/kg, 1 mg/kg bolus i.v., 8 h, read-out: Brain/plasma concentration ratio, Mean) of 2.25 and a concentration at 5 min ([2]; male, CD-1, mouse, brain, 1 mg/kg, 1 mg/kg bolus i.v., 5 min, individual animals 1-3, read-out: Brain concentration) of 545 ng/g. For the same compound, the concentration at 5 min ([2]; male, CD-1, mouse, brain, 1 mg/kg, 1 mg/kg bolus i.v., 5 min, read-out: Brain concentration, Mean) was 553 ng/g, the concentration at 0.25 h ([2]; male, CD-1, mouse, brain, 1 mg/kg, 1 mg/kg bolus i.v., 0.25 h, individual animals 1-3, read-out: Brain concentration) was 272 ng/g and the concentration at 0.25 h ([2]; male, CD-1, mouse, brain, 1 mg/kg, 1 mg/kg bolus i.v., 0.25 h, read-out: Brain concentration, Mean) was 388 ng/g. For the same compound, the concentration at 0.5 h ([2]; male, CD-1, mouse, brain, 1 mg/kg, 1 mg/kg bolus i.v., 0.5 h, individual animals 1-3, read-out: Brain concentration) was 372 ng/g, the concentration at 0.5 h ([2]; male, CD-1, mouse, brain, 1 mg/kg, 1 mg/kg bolus i.v., 0.5 h, read-out: Brain concentration, Mean) was 279 ng/g and the concentration at 1 h ([2]; male, CD-1, mouse, brain, 1 mg/kg, 1 mg/kg bolus i.v., 1 h, individual animals 1-3, read-out: Brain concentration) was 225 ng/g. It also gave a concentration at 1 h ([2]; male, CD-1, mouse, brain, 1 mg/kg, 1 mg/kg bolus i.v., 1 h, read-out: Brain concentration, Mean) of 224 ng/g, a concentration at 2 h ([2]; male, CD-1, mouse, brain, 1 mg/kg, 1 mg/kg bolus i.v., 2 h, individual animals 1-3, read-out: Brain concentration) of 171 ng/g and a concentration at 2 h ([2]; male, CD-1, mouse, brain, 1 mg/kg, 1 mg/kg bolus i.v., 2 h, read-out: Brain concentration, Mean) of 169 ng/g. For the same compound, the concentration at 4 h ([2]; male, CD-1, mouse, brain, 1 mg/kg, 1 mg/kg bolus i.v., 4 h, individual animals 1-3, read-out: Brain concentration) was 107 ng/g, the concentration at 4 h ([2]; male, CD-1, mouse, brain, 1 mg/kg, 1 mg/kg bolus i.v., 4 h, read-out: Brain concentration, Mean) was 87.8 ng/g and the concentration at 6 h ([2]; male, CD-1, mouse, brain, 1 mg/kg, 1 mg/kg bolus i.v., 6 h, individual animals 1-3, read-out: Brain concentration) was 39.8 ng/g. For the same compound, the concentration at 6 h ([2]; male, CD-1, mouse, brain, 1 mg/kg, 1 mg/kg bolus i.v., 6 h, read-out: Brain concentration, Mean) was 40.8 ng/g, the concentration at 8 h ([2]; male, CD-1, mouse, brain, 1 mg/kg, 1 mg/kg bolus i.v., 8 h, individual animals 1-3, read-out: Brain concentration) was 33.4 ng/g and the concentration at 8 h ([2]; male, CD-1, mouse, brain, 1 mg/kg, 1 mg/kg bolus i.v., 8 h, read-out: Brain concentration, Mean) was 24.2 ng/g. The Kp at 1 h ([2]; male, CD-1, mouse, brain/plasma, iv, 1 mg/kg, 1 mg/kg bolus i.v., 1 h, individual animals 1-3, read-out: Brain/plasma concentration ratio) was 0.534, the Kp at 1 h ([2]; male, CD-1, mouse, brain/plasma, iv, 1 mg/kg, 1 mg/kg bolus i.v., 1 h, read-out: Brain/plasma concentration ratio, Mean) was 0.551 and the Kp at 2 h ([2]; male, CD-1, mouse, brain/plasma, iv, 1 mg/kg, 1 mg/kg bolus i.v., 2 h, individual animals 1-3, read-out: Brain/plasma concentration ratio) was 0.71. It also gave a Kp at 2 h ([2]; male, CD-1, mouse, brain/plasma, iv, 1 mg/kg, 1 mg/kg bolus i.v., 2 h, read-out: Brain/plasma concentration ratio, Mean) of 0.655, a Kp at 4 h ([2]; male, CD-1, mouse, brain/plasma, iv, 1 mg/kg, 1 mg/kg bolus i.v., 4 h, individual animals 1-3, read-out: Brain/plasma concentration ratio) of 0.87 and a Kp at 4 h ([2]; male, CD-1, mouse, brain/plasma, iv, 1 mg/kg, 1 mg/kg bolus i.v., 4 h, read-out: Brain/plasma concentration ratio, Mean) of 1. It also gave a Kp at 6 h ([2]; male, CD-1, mouse, brain/plasma, iv, 1 mg/kg, 1 mg/kg bolus i.v., 6 h, read-out: Brain/plasma concentration ratio, Mean) of 0.96, a Kp ([2]; male, CD-1, mouse, brain/plasma, iv, 1 mg/kg, i.v. 1 mg/kg, read-out: Brain/plasma AUC0-inf ratio) of 0.701 and a Cmax [2, 3] of 553 ng/g. For the same compound, the Tmax [2, 3] was 5 min, the half-life ([2]; male, CD-1, mouse, iv, brain, i.v. 1 mg/kg, read-out: Apparent t1/2 (converted)) was 2.1 h and the MRT inf ([2]; male, CD-1, mouse, iv, brain, i.v. 1 mg/kg, read-out: MRT0-inf) was 2.96 h.
